Measurements from patent US20120328602A1, “COMPOSITIONS AND METHODS FOR TREATING CONDITIONS ASSOCIATED WITH CERAMIDE BIOSYNTHESIS” (priority 2007, published 2012).
Entries after “also recorded” stand apart in the source; their conditions may differ.

Tests used:
[1] = tested on: manganese superoxide dismutase (MnSOD); assay: measurement of MnSOD enzymatic activity, spectrophotometric; format: in vivo, mice; details: FB1 0.25-1 mg/kg/d with morphine, n=5
Experimental: Dorsal halves of the spinal cord lumbar region enlargement (L4-L6) were homogenized with 10 mM phosphate buffered saline (pH 7.4) in a Polytron homogenizer and then sonicated on ice for one minute (twenty seconds, three times). The sonicated samples were subsequently centrifuged at 1,100×g for ten minutes. SOD activity was measured in the supernatants as described previously (Wang et al., 2004). A competitive inhibition assay was performed which used xanthine-xanthine oxidase-generated superoxide to reduce nitroblue tetrazolium (NBT) to blue tetrazolium salt. The reaction was performed in sodium carbonate buffer (50 mM, pH 10.1) containing EDTA (0.1 mM), nitroblue tetrazolium (25 μM), xanthine and xanthine-oxidase (0.1 mM and 2 nM respectively; Boehringer, Germany). The rate of NBT reduction was monitored spectrophotometrically (Perkin Elmer Lambda 5 Spectrophotometer, Milan, Italy) at 560 nm. The amount of protein required to inhibit the rate of NTB reduction by 50% was defined as one unit of enzyme activity. Cu/Zn-SOD activity was inhibited by performing the assay in the presence of 2 mM NaCN after pre-incubation for thirty minutes. Enzymatic activity was expressed in units per milligram of protein (Wang et al., 2004).

mice = assay: Rotarod motor function test; format: in vivo; details: myriocin 0.4 mg/kg, FB1 1 mg/kg, D609 40 mg/kg; fifteen, thirty, and sixty minutes after administration; n=4; vs vehicle
Experimental: Mice were trained before experimentation for their ability to remain for one-hundred twenty seconds on a revolving Rotarod apparatus (accelerating units increase from 3.5 to 35 rpm in five minutes). Mice (n=4 per group) were injected with an i.p. injection of the highest dose of FB1 (1 mg/kg), myriocin (0.4 mg/kg), D609 (40 mg/kg) used to block antinociceptive tolerance or its vehicle. Mice (n=4 per group) were tested and examined for motor […] on the Rotarod at fifteen, thirty, and sixty minutes after drug administration as described in the method section. The latency time to fall off the Rotarod was determined. A cut-off time of one-hundred twenty seconds was used.

ceramide synthase = ceramide synthase activity in spinal cord homogenates; format: in vivo, mice
Experimental: About 60 to 80 mg of spinal cord homogenates were incubated with [^3H]-palmytic acid (2.5 μCi/ml, GE Healthcare, England) for one hour. Lipids were extracted with ice-cold methanol containing 2% acetic acid and 5% chloroform and resolved using thin-layer chromatography. Lipids co-migrating with standards were scraped and quantified by […] counting as described elsewhere (Castillo et al., 2007).

[2] = tested on: serine palmitoyl transferase (SPT); assay: serine palmitoyl transferase (SPT) activity; format: in vivo, mice; details: repeated morphine, tolerant mice vs vehicle
Experimental: SPT activity was determined by measuring the incorporation of [^3H] serine into 3-ketosphinganine following the method previously described (Williams et al., 1984). The results were normalized by the samples' protein concentration.

IL-6 = IL-6 in dorsal horn of lumbar spinal cord by ELISA; format: in vivo, mice; details: morphine group vs vehicle group, n=10
IL-1β = IL-1β in dorsal horn of lumbar spinal cord by ELISA; format: in vivo, mice; details: morphine group vs vehicle group, n=10
neutral SMase = assay: sphingomyelinase activity in spinal cord tissues, neutral isoform (Amplex Red kit); format: in vivo, mice; details: repeated morphine vs vehicle (not shown)
Experimental: Sphingomyelinase activity was measure using Amplex® Red Sphingomyelinase Assay Kit (Molecular Probes, Eugene, Oreg.) following manufacturer's instructions. First, spinal cord tissues were homogenized in buffers for each specific assay as previously described (Dobrowsky and Kolesnick, 2001). For the acid isoforms, Na acetate (100 mM and pH 5.0) lysis buffer was used. 2 mM EDTA was added to the lysis buffer for detection of the insoluble isoform. For neutral isoform detection, the tissues were homogenized in Hepes (20 mM, pH 7.4) lysis buffer. The kinetics for sphingomyelinase activity was measured in a fluorescence microplate reader for two hours followed by normalization per protein concentration of the sample. Hydrogen peroxide and sphingomyelinase were used as positive controls.

TNF-α = TNF-α in dorsal horn of lumbar spinal cord by ELISA; format: in vivo, mice; details: morphine group vs vehicle group, n=10

Question: How did the “loss of MnSOD enzymatic activity” value [1] turn out when `CCCC[C@@H](C)[C@@H](OC(=O)C[C@@H](CC(=O)O)C(=O)O)[C@H](C[C@@H](C)C[C@H](O)CCCC[C@@H](O)C[C@H](O)[C@H](C)N)OC(=O)C[C@@H](CC(=O)O)C(=O)O` [FB1, Fumonisin B1] was run?
Answer: The value was “restored in a dose-dependent manner”.

Question: What about the “Rotarod motor function deficits” value (mice) of the same compound?
Answer: Its value is “did not show signs of Rotarod deficits”.

Question: What about the “increase in CS activity” value (ceramide synthase; co-administration of morphine with FB1 1 mg/kg/d, n=10) of the same compound?
Answer: The value was “attenuated as expected the increase in CS activity”.

Question: Which “enzymatic activity of serine palmytoyl transferase (SPT)” value [2] does the source give for `CN1CC[C@]23c4c5ccc(O)c4O[C@H]2[C@@H](O)C=C[C@H]3[C@H]1C5` [morphine] here?
Answer: Its value is “increased enzymatic activity”.

Question: And the “IL-6 in dorsal horn tissues” value (IL-6)?
Answer: The value was “increased immunoreactivity; also recorded: significant increase”.

Question: And the “IL-1β in dorsal horn tissues” value (IL-1β)?
Answer: Its value is “increased immunoreactivity; also recorded: significant increase”.

Question: What about the “activity of the neutral SMase” value (neutral SMase) of the same compound?
Answer: The value was “not changed compared to vehicle”.

Question: What about the “TNF-α in dorsal horn tissues” value (TNF-α) of the same compound?
Answer: The value was “increased immunoreactivity; also recorded: significant increase”.

Question: And the “enzymatic activity of ceramide synthase (CS)” value (ceramide synthase; repeated morphine, tolerant mice vs vehicle)?
Answer: Its value is “increased enzymatic activity”.
